“And” between values parts separate entries of the source, which are not always exact repeats. Identical values can stand only once.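 How tested: cells in 96-well plates exposed to compound for 48 hours at five concentrations. Abbreviation: GI50, concentration required for 50% inhibition of growth. TGI denotes the concentration required for complete inhibition of growth.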
Legend:
Test in all cases: NCI anticancer screen, dose series, 48 h
CAKI-1 renal = tested on: CAKI-1 renal
SK-MEL-28 melanoma = tested on: SK-MEL-28 melanoma
OVCAR-4 ovarian = tested on: OVCAR-4 ovarian
MALME-3M melanoma = tested on: MALME-3M melanoma
OVCAR-5 ovarian = tested on: OVCAR-5 ovarian
HCT-116 colon = tested on: HCT-116 colon
K-562 leukemia = tested on: K-562 leukemia
U251 CNS = tested on: U251 CNS
HOP-62 NSCLC = tested on: HOP-62 NSCLC
UACC-257 melanoma = tested on: UACC-257 melanoma

Row | SMILES | GI50 (CAKI-1 renal) [µM] | TGI (CAKI-1 renal) [µM] | GI50 (SK-MEL-28 melanoma) [µM] | TGI (SK-MEL-28 melanoma) [µM] | GI50 (OVCAR-4 ovarian) [µM] | TGI (OVCAR-4 ovarian) [µM] | GI50 (MALME-3M melanoma) [µM] | TGI (MALME-3M melanoma) [µM] | GI50 (OVCAR-5 ovarian) [µM] | TGI (OVCAR-5 ovarian) [µM] | GI50 (HCT-116 colon) | TGI (HCT-116 colon) [µM] | TGI (K-562 leukemia) [µM] | TGI (U251 CNS) [µM] | TGI (HOP-62 NSCLC) [µM] | TGI (UACC-257 melanoma) [µM] | GI50 (K-562 leukemia) | GI50 (U251 CNS) | GI50 (UACC-257 melanoma) [µM] | GI50 (HOP-62 NSCLC) [µM]
1 | COc1cc([N+](=O)[O-])c(OC)cc1-c1nc2sc(Cl)cn2c1/C=N/NC(=N)N/N=C/c1c(-c2cc(OC)c([N+](=O)[O-])cc2OC)nc2sc(Cl)cn12 | 4.33 | 23.8 | 3.19 | > 100 | 2.42 | 5.71 | 1.61 | 3.28 | 1.71 | 3.16 | 1.76 µM | 3.15 | – | – | – | – | – | – | – | –
2 | CC(=O)c1c[nH]cc1CO | – | > 10 | – | > 10 | – | – | – | > 10 | – | > 10 | – | > 10 | > 10 | > 10 | > 10 | – | – | – | – | –
3 | Clc1nc(Cl)c(Cc2ccccc2)c(Cl)n1 | – | – | – | 26.6 | – | 29.4 | – | 63.2 | – | 38.2 | – | 4.73 | > 100 | 33.8 | 20.4 | – | – | – | – | –
4 | O=C(NCP(=O)(O)O)c1cccnc1 | – | > 100 | – | > 100 | – | > 100 | – | – | – | > 100 | – | > 100 | > 100 | > 100 | > 100 | > 100 | – | – | – | –
5 | Cc1ccc(/C=C2\CCCC\C2=N\O)cc1 | – | > 100 | – | > 100 | – | > 100 | – | – | – | – | – | > 100 | > 100 | > 100 | > 100 | – | – | – | – | –
6 | COC(=O)[C@@H](C)C[C@H](Cc1ccccc1)NC(=O)c1csc([C@@H](C[C@H](C(C)C)N(C)C(=O)C2(NC(=O)[C@H]3CCCCN3C)CC2)OC(C)=O)n1 | – | – | – | – | 0.00865 | – | > 33.3 | > 33.3 | – | > 33.3 | 0.00343 µM and 0.00333 µM | > 33.3 | > 33.3 | > 33.3 | > 33.3 | – | 0.00244 µM and 0.00333 µM | 0.00913 µM and 0.00333 µM | – | –
7 | N#C[S-].[Au+].c1ccc(CN2[CH-]N(Cc3ccccc3)C(c3ccccc3)=C2c2ccccc2)cc1 | – | – | – | – | 0.413 | 2.1 | 0.284 | 1.15 | 1.21 | 3.28 | – | – | – | – | – | – | – | – | – | –
8 | CN1CCn2c(c(Sc3ccc(C(=O)NO)cc3)c3ccccc32)C1=O | 3.86 | 11 | 1.94 | 4.94 | 2.14 | 9.99 | – | – | 2 | 5.67 | 1.59 µM | 3.55 | > 100 | 4 | 3.87 | 3.56 | 3.77 µM | 1.79 µM | 1.51 | 1.88
9 | C=C1C(=O)O[C@H]2[C@H]1CC/C(CNS(=O)(=O)c1cccc3ccccc13)=C\CC[C@@]1(C)O[C@@H]21 | 1.12 | 2.56 | 1.97 | 4.24 | 1.72 | 3.68 | 1.77 | 4.09 | 2.84 | 8.44 | 1.08 µM | 2.3 | – | 15.3 | 27.9 | 3.89 | – | 3.67 µM | 1.64 | 13.4
10 | COc1ccc2c(c1)OC(N)=C(C#N)C2c1ccc(F)cc1 (stereo not drawn) | – | – | 15.2 | > 100 | 6.59 | > 100 | 12.9 | 77.9 | 14.5 | > 100 | 1.09 µM | 26 | – | > 100 | > 100 | > 100 | – | 3.08 µM | 24.5 | 0.986
